From patent publication US12042545B2, “Encapsulated extracellular vesicles” (THE BOARD OF TRUSTEES OF THE UNIVERSITY OF ILLINOIS, priority 2020, dated 2024)
Like-named read-outs stand apart in the source and are kept apart here. Ends that are not written are not given here.

Assay: Bulk transport experiments: release from alginate hydrogels
[1] = EVs encapsulated in alginate hydrogels, agent added or tethered

Compound	effect of treatment on EV release from hydrogels [1]	other results
O=C(O)CN(CCOCCOCCN(CC(=O)O)CC(=O)O)CC(=O)O [EGTA]	did not affect the release	–
CCN(c1nc(N)c(C(=O)NC(=N)N)nc1Cl)C(C)C [EIPA]	did not alter EV release from the hydrogels	–
O=C(O)c1cc([N+](=O)[O-])ccc1NCCCc1ccccc1 [NPPB]	did not alter EV release from the hydrogels	–
C[C@@H](N)[C@H]1CC[C@H](C(=O)Nc2ccncc2)CC1 [Y27632]	did not affect the EV release	–
Cc1ccc2c(c1)C(=O)C1(O)CCN(c3ccccc3)C1=N2 (stereo not drawn) [blebbistatin]	did not affect the EV release	–
C[C@H](CCC(=O)O)C[C@H](C)C[C@H](C)C(=O)/C=C(\O)[C@H](C)C[C@H](C)C/C=C/[C@@H](C)[C@@H](O)[C@@H](C)[C@@H](O)C[C@@H]1CC[C@@](C)([C@H]2CC[C@@](C)([C@@H](C)O)O2)O1 [ionomycin]	did not affect the release	–
NC1=N[C@H](O)[C@H]2[C@H]3O[C@]4(O)O[C@@H]([C@@H](O)[C@@]2(N1)[C@@H]4O)[C@]3(O)CO [tetrodotoxin]	–	effect of treatment on EV release from hydrogels: significantly increased EV release in soft and stiff stress relaxing hydrogels
OC[C@H]1O[C@H](O[C@H]2O[C@H](CO)[C@@H](O)[C@H](O)[C@H]2O)[C@H](O)[C@@H](O)[C@@H]1O [trehalose]	–	release behavior of lyophilized EVs with cryoprotectant (added to EV preparations during lyophilization): recovered release behavior
GsMTx4: a selective inhibition of cation-permeable mechanosensitive channels (GCLEFWWKCNPNDDKCCRPKLKCSKLFKLCNFSF; ends and bridges not checked; cysteine pairing not given here; UniProt Q7YT39 47-80, looked up)	increased EV release in stiff stress relaxing hydrogels	–
